Laboratory results as given in patent publication EP1202975B1, “SUBSTITUTED POLYCYCLIC ARYL AND HETEROARYL PYRAZINONES USEFUL FOR SELECTIVE INHIBITION OF THE COAGULATION CASCADE” (Pharmacia Corporation, priority 1999, dated 2000).
Read-outs that look alike come from different tables or passages of the source.

Tests used:
TF-VIIa = target: T1, TF-VIIa (Homo sapiens, UniProt P08709); test: TF-VIIa Assay; type: biochemical
T1 construct: 2nM recombinant human factor VIIa; purchased American Diagnostica, Greenwich CT; host or cells: soluble TF made in house in E. coli
T1 sequence (P08709 213-466 limits assumed): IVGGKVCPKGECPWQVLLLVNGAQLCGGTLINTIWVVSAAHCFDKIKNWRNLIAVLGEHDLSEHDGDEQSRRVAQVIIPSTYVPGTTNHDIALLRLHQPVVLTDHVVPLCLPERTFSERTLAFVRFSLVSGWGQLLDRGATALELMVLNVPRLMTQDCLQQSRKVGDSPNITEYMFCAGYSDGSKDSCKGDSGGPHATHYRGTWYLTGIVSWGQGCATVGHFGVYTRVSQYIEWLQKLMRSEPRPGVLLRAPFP
T1 sequence (P08709 61-212 limits assumed): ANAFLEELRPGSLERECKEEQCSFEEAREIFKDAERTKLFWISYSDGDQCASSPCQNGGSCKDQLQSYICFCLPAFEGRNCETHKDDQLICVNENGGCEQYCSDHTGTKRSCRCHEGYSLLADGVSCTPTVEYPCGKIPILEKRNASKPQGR
T1 sequence (P13726 33-251 partner limits assumed): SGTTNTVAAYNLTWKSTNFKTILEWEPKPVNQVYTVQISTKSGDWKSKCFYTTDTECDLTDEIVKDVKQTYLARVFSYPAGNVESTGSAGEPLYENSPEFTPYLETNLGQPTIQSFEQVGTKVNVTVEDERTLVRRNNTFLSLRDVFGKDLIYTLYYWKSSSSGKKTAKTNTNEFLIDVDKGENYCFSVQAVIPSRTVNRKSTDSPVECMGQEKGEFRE

Human factor Xa = Human factor Xa (Homo sapiens, UniProt P00742)
Sequence of Human factor Xa (P00742 235-488 limits assumed): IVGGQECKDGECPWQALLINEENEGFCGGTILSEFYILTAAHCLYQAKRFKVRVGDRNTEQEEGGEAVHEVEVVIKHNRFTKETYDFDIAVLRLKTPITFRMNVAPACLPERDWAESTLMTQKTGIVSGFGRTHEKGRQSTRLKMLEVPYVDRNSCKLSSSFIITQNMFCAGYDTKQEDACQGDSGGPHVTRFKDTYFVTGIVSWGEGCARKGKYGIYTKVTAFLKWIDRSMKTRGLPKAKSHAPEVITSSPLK
Sequence of Human factor Xa (P00742 41-179 limits assumed): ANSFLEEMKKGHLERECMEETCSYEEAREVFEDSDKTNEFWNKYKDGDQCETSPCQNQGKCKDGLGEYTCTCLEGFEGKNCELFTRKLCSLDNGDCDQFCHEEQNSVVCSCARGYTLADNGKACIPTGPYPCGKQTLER

[1] = read-out: IC50 or % Inhibition TF-VIIa (30 µM); cells given as a plain number (IC50)
[2] = cells given as a plain number (IC50); read-out: IC50 or % Inhibition TF-VIIa (30 µM)

Structure (SMILES) | IC50 (TF-VIIa; [1]) | IC50 or % Inhibition Factor Xa (30 µM) (Human factor Xa) | IC50 or % Inhibition TF-VIIa (30 µM) (TF-VIIa) | IC50 (TF-VIIa; [2])
N=C(N)c1ccc(CNC(=O)Cn2c(-c3ccc4c(c3)OCO4)c(Cl)nc(NCCc3ccncc3)c2=O)cc1 [1471-45] | 13.2 µM | 24% | – | –
N=C(N)c1ccc(CNC(=O)Cn2c(-c3ccc4c(c3)OCO4)c(Cl)nc(NCCc3cccc(Cl)c3)c2=O)cc1 [1471-46] | 13 µM | 21% | – | –
N=C(N)c1ccc(CNC(=O)Cn2c(-c3ccc4c(c3)OCO4)c(Cl)nc(NCCc3ccccc3)c2=O)cc1 [1471-47] | 12.6 µM | 22% | – | –
N=C(N)c1ccc(CNC(=O)Cn2c(-c3ccc4c(c3)OCO4)c(Cl)nc(NCCc3cccnc3)c2=O)cc1 [1471-48] | 15.7 µM | 17% | – | –
CCc1c(Cl)nc(NCCc2ccc(Cl)cc2)c(=O)n1CC(=O)NCc1ccc(C(=N)N)cc1 [1471-58] | 12.4 µM | 0% | – | –
CCc1c(Cl)nc(NCc2ccncc2)c(=O)n1CC(=O)NCc1ccc(C(=N)N)cc1 [1471-59] | 7.52 µM | 0% | – | –
CCc1c(Cl)nc(NCCN2CCOCC2)c(=O)n1CC(=O)NCc1ccc(C(=N)N)cc1 [1471-60] | 13 µM | 0% | – | –
CCc1c(Cl)nc(NCCc2ccncc2)c(=O)n1CC(=O)NCc1ccc(C(=N)N)cc1 [1471-61] | 5 µM | 0% | – | –
CCc1c(Cl)nc(NCCc2cccc(Cl)c2)c(=O)n1CC(=O)NCc1ccc(C(=N)N)cc1 [1471-62] | – | 0% | 4% | –
CCc1c(Cl)nc(NCCc2ccccc2)c(=O)n1CC(=O)NCc1ccc(C(=N)N)cc1 [1471-63] | – | 2% | – | 3.45 µM
CCc1c(Cl)nc(NCCc2cccnc2)c(=O)n1CC(=O)NCc1ccc(C(=N)N)cc1 [1471-64] | 3.02 µM | 2% | – | –
N=C(N)c1ccc(CNC(=O)Cn2c(-c3ccc(-c4ccccc4)cc3)c(Cl)nc(NCc3ccncc3)c2=O)cc1 [1471-67] | – | 16% | 12% | –
N=C(N)c1ccc(CNC(=O)Cn2c(-c3ccc(-c4ccccc4)cc3)c(Cl)nc(NCCc3cccc(Cl)c3)c2=O)cc1 [1471-70] | – | 12% | 10% | –
N=C(N)c1ccc(CNC(=O)Cn2c(-c3ccc(-c4ccccc4)cc3)c(Cl)nc(NCCc3ccccc3)c2=O)cc1 [1471-71] | – | 0% | 6% | –
N=C(N)c1ccc(CNC(=O)Cn2c(-c3ccc(-c4ccccc4)cc3)c(Cl)nc(NCCc3cccnc3)c2=O)cc1 [1471-72] | – | 22% | 15% | –
N=C(N)c1ccc(CNC(=O)Cn2c(-c3ccccc3)c(Cl)nc(NC3CCc4ccccc43)c2=O)cc1 (stereo not drawn) [1507-02] | 9.4 µM | 9% | – | –

Structure (SMILES) | IC50 (TF-VIIa; [1]) | IC50 or % Inhibition Factor Xa (30 µM) (Human factor Xa) | IC50 or % Inhibition TF-VIIa (30 µM) (TF-VIIa) | IC50 (TF-VIIa; [2])
N=C(N)c1ccc(CNC(=O)Cn2c(-c3ccccc3)c(Cl)nc(NCc3ccccc3Cl)c2=O)cc1 [1507-03] | 3.6 µM | 21% | – | –
N=C(N)c1ccc(CNC(=O)Cn2c(-c3ccccc3)c(Cl)nc(NCCCn3ccnc3)c2=O)cc1 [1507-05] | 4.7 µM | 10% | – | –
N=C(N)c1ccc(CNC(=O)Cn2c(-c3ccccc3)c(Cl)nc(NC3Cc4ccccc4C3)c2=O)cc1 [1507-08] | – | 1% | 7% | –
N=C(N)c1ccc(CNC(=O)Cn2c(-c3ccccc3)c(Cl)nc(NCC(c3ccccc3)c3ccccc3)c2=O)cc1 [1507-09] | 22.6 µM | 13% | – | –
N=C(N)c1ccc(CNC(=O)Cn2c(-c3ccccc3)c(Cl)nc(NC3CCCc4ccccc43)c2=O)cc1 (stereo not drawn) [1507-16] | 5.8 µM | 18% | – | –
N=C(N)c1ccc(CNC(=O)Cn2c(-c3ccccc3)c(Cl)nc(NCCC3=CCCCC3)c2=O)cc1 [1507-17] | 27.4 µM | 16% | – | –
N=C(N)c1ccc(CNC(=O)Cn2c(-c3ccccc3)c(Cl)nc(NCCCN3CCCC3=O)c2=O)cc1 [1507-19] | 12.9 µM | 4% | – | –
N=C(N)c1ccc(CNC(=O)Cn2c(-c3ccccc3)c(Cl)nc(NC3CCC3)c2=O)cc1 [1507-21] | – | 23% | – | 0.4 µM
N=C(N)c1ccc(CNC(=O)Cn2c(-c3ccccc3)c(Cl)nc(NCc3ccccn3)c2=O)cc1 [1507-24] | – | 15% | 0% | –
N=C(N)c1ccc(CNC(=O)Cn2c(-c3ccccc3)c(Cl)nc(NC(c3ccccc3)c3ccccc3)c2=O)cc1 [1507-35] | 19.9 µM | 28% | – | –
N=C(N)c1ccc(CNC(=O)Cn2c(-c3ccccc3)c(Cl)nc(NCc3cc(C(F)(F)F)cc(C(F)(F)F)c3)c2=O)cc1 [1507-40] | 5.7 µM | 11% | – | –
N=C(N)c1ccc(CNC(=O)Cn2c(-c3ccccc3)c(Cl)nc(NCC(F)(F)F)c2=O)cc1 [1507-41] | – | 17% | 48% | –
N=C(N)c1ccc(CNC(=O)Cn2c(-c3ccccc3)c(Cl)nc(NCCCCc3ccccc3)c2=O)cc1 [1507-43] | – | 21% | – | 4.1 µM
N=C(N)c1ccc(CNC(=O)Cn2c(-c3ccccc3)c(Cl)nc(NCCc3ccc(Cl)c(Cl)c3)c2=O)cc1 [1507-44] | 6 µM | 9% | – | –
N=C(N)c1ccc(CNC(=O)Cn2c(-c3ccccc3)c(Cl)nc(NCc3ccc(Cl)cc3)c2=O)cc1 [1507-46] | – | 8% | – | 4.3 µM

Continued, values first:

IC50 (TF-VIIa; [1]) | IC50 or % Inhibition Factor Xa (30 µM) (Human factor Xa) | IC50 or % Inhibition TF-VIIa (30 µM) (TF-VIIa) | IC50 (TF-VIIa; [2]) | Structure (SMILES)
– | 19% | – | 17.6 µM | CN(C)CCCNc1nc(Cl)c(-c2ccccc2)n(CC(=O)NCc2ccc(C(=N)N)cc2)c1=O [1507-47]
18 µM | 4% | – | – | N=C(N)c1ccc(CNC(=O)Cn2c(-c3ccccc3)c(Cl)nc(NCC3COc4ccccc4O3)c2=O)cc1 (stereo not drawn) [1512-01]
19.2 µM | 3% | – | – | COc1cccc(CNc2nc(Cl)c(-c3ccccc3)n(CC(=O)NCc3ccc(C(=N)N)cc3)c2=O)c1OC [1512-02]
16.7 µM | 10% | – | – | COc1ccc(CCNc2nc(Cl)c(-c3ccccc3)n(CC(=O)NCc3ccc(C(=N)N)cc3)c2=O)cc1OC [1512-05]
– | 4% | – | 12.6 µM | N=C(N)c1ccc(CNC(=O)Cn2c(-c3ccccc3)c(Cl)nc(NCCCc3ccccc3)c2=O)cc1 [1512-06]
30 µM | 5% | – | – | CCOc1ccccc1CNc1nc(Cl)c(-c2ccccc2)n(CC(=O)NCc2ccc(C(=N)N)cc2)c1=O [1512-11]
11.3 µM | 5% | – | – | CCCCC(CC)Nc1nc(Cl)c(-c2ccccc2)n(CC(=O)NCc2ccc(C(=N)N)cc2)c1=O (stereo not drawn) [1512-12]
– | 6% | – | 20.9 µM | CN(C)CCNc1nc(Cl)c(-c2ccccc2)n(CC(=O)NCc2ccc(C(=N)N)cc2)c1=O [1512-15]
14.6 µM | 6% | – | – | CC1CCCC(Nc2nc(Cl)c(-c3ccccc3)n(CC(=O)NCc3ccc(C(=N)N)cc3)c2=O)C1C (stereo not drawn) [1512-23]
26.9 µM | 5% | – | – | N=C(N)c1ccc(CNC(=O)Cn2c(-c3ccccc3)c(Cl)nc(NCc3ccc(C(F)(F)F)cc3F)c2=O)cc1 [1512-26]
16.5 µM | 3% | – | – | N=C(N)c1ccc(CNC(=O)Cn2c(-c3ccccc3)c(Cl)nc(NCc3cc(C(F)(F)F)ccc3F)c2=O)cc1 [1512-27]
– | 4% | 47% | – | N=C(N)c1ccc(CNC(=O)Cn2c(-c3ccccc3)c(Cl)nc(NCc3cc(F)cc(C(F)(F)F)c3)c2=O)cc1 [1512-29]
– | 14% | 43% | – | Cc1cccc(Cl)c1CNc1nc(Cl)c(-c2ccccc2)n(CC(=O)NCc2ccc(C(=N)N)cc2)c1=O [1512-31]
21.9 µM | 5% | – | – | N=C(N)c1ccc(CNC(=O)Cn2c(-c3ccccc3)c(Cl)nc(NCc3cc(F)c(F)c(F)c3)c2=O)cc1 [1512-32]
22.5 µM | 4% | – | – | N=C(N)c1ccc(CNC(=O)Cn2c(-c3ccccc3)c(Cl)nc(NCc3cc(Cl)ccc3Cl)c2=O)cc1 [1512-35]
– | 9% | – | 3.8 µM | N=C(N)c1ccc(CNC(=O)Cn2c(-c3ccccc3)c(Cl)nc(NCc3cc(F)ccc3F)c2=O)cc1 [1512-36]
– | 4% | – | 6 µM | N=C(N)c1ccc(CNC(=O)Cn2c(-c3ccccc3)c(Cl)nc(NCc3cc(F)cc(F)c3)c2=O)cc1 [1512-39]
– | 3% | 40% | – | N=C(N)c1ccc(CNC(=O)Cn2c(-c3ccccc3)c(Cl)nc(NCc3cccc(OC(F)(F)F)c3)c2=O)cc1 [1512-40]
– | 4% | – | 30 µM | N=C(N)c1ccc(CNC(=O)Cn2c(-c3ccccc3)c(Cl)nc(NCCc3cccc(C(F)(F)F)c3)c2=O)cc1 [1512-41]
25 µM | 1% | – | – | N=C(N)c1ccc(CNC(=O)Cn2c(-c3ccccc3)c(Cl)nc(NCc3ccccc3OC(F)(F)F)c2=O)cc1 [1512-42]
11 µM | 9% | – | – | N=C(N)c1ccc(CNC(=O)Cn2c(-c3ccccc3)c(Cl)nc(NCc3c(F)cccc3F)c2=O)cc1 [1512-43]
– | 6% | 43% | – | N=C(N)c1ccc(CNC(=O)Cn2c(-c3ccccc3)c(Cl)nc(NCc3c(F)cccc3C(F)(F)F)c2=O)cc1 [1512-44]
– | 11% | 27% | – | Cc1cc(Cl)cc(Cl)c1CNc1nc(Cl)c(-c2ccccc2)n(CC(=O)NCc2ccc(C(=N)N)cc2)c1=O [1512-45]
